# Tests used:
# [1] = system: Normal Bone marrow; test: anticancer cell proliferation assay (WST-1); format: cell-based; settings: Table 4
# Experimental: (§1) Bioactivity of the above-described compounds has been verified by an anticancer cell proliferation assay using the WST-1 (4-[3-(4-iodophenyl)-2-(4-nitrophenyl)-2H-5-tetrazoliol-1, 3-benzene disulfonate) colorimetric assay by Roche Life Sciences®. Anticancer activity was tested against several standard cancer cell lines including brain, breast, Kaposi sarcoma, leukemia, lung, melanoma, tenosynovial giant cell tumor, ovarian, pancreatic, colon and prostate cancer. Cells were trypsinized and plated into 96 well plates in 50 μl of media and incubated overnight. The next day approximately 18 hours after plating, 50 μl of media containing the required flavonoid-based pharmaceutical composition was added per well. Cells were plated at a density so that 72 hours post drug addition, the cells will be in log phase (500-2000 cells/well). The compounds and extracts were solubilized in Dimethyl sulfoxide (DMSO). The cells are allowed to proliferate for 72 hours 37° C. in humidified atmosphere of 5% CO2. The experiment is terminated using WST-1 (Roche®) 10 μl per well and absorbance is read at 450 nm/690 nm. The effect of drugs on growth is assessed as percent of cell viability. The IC50 values were determined from the extract dose versus control growth curves using Graphpad Prism® software. All experiments were carried out in duplicate and the mean results determined.
# [2] = system: MOLM-14 Acute Myeloid Leukemia cell line; test: anticancer cell proliferation assay (WST-1); format: cell-based; settings: Table 4; read-out: IC50 Acute Myeloid Leukemia cell lines MOLM-14
# Experimental: as §1, with “Anticancer” for “Bioactivity of the above-described compounds has been verified by an anticancer cell proliferation assay using the WST-1 (4-[3-(4-iodophenyl)-2-(4-nitrophenyl)-2H-5-tetrazoliol-1, 3-benzene disulfonate) colorimetric assay by Roche Life Sciences®. Anticancer”
# [3] = system: MV4-11 (Leukemia); test: anticancer cell proliferation assay (WST-1); format: cell-based; settings: Table 4; read-out: IC50 Acute Myeloid Leukemia cell lines MV4-11
# Experimental: as §1, with “Anticancer” for “Bioactivity of the above-described compounds has been verified by an anticancer cell proliferation assay using the WST-1 (4-[3-(4-iodophenyl)-2-(4-nitrophenyl)-2H-5-tetrazoliol-1, 3-benzene disulfonate) colorimetric assay by Roche Life Sciences®. Anticancer”
# [4] = system: THP-1 Acute Myeloid Leukemia cell line; test: anticancer cell proliferation assay (WST-1); format: cell-based; settings: Table 4; read-out: IC50 Acute Myeloid Leukemia cell lines THP-1
# Experimental: as §1, with “Anticancer” for “Bioactivity of the above-described compounds has been verified by an anticancer cell proliferation assay using the WST-1 (4-[3-(4-iodophenyl)-2-(4-nitrophenyl)-2H-5-tetrazoliol-1, 3-benzene disulfonate) colorimetric assay by Roche Life Sciences®. Anticancer”
# [5] = target: SIRT-5 (Homo sapiens, UniProt Q9NXA8); test: inhibition of sirtuins; format: biochemical
# Text: Inhibition of Sirtuins, matrix metalloproteinase, bromodomains was also confirmed using standard protocols and the results are present in Table 2.
# [6] = target: T1, FLT3(D835Y) (Homo sapiens, UniProt P36888, D835Y); format: binding; settings: Table 4; read-out: IC50 Kinases FLT3-D835Y
# T1 construct: full-length constructs were used for small, single domain kinases, and catalytic domain constructs for large multi-domain kinases; T7 phage fusion (most assays) or DNA tag for qPCR (HEK-293-made kinases); made in house
# Experimental: Cannabis flavonoids and their analogs were subjected to kinase inhibition assay. The compounds were first screened at a single concentration of 10 μM in the primary assay. […] To determine the kd or IC50 values, competition binding assays were established, authenticated and executed as described previously. […] See also, Karaman et al., “A Quantitative Analysis Of Kinase Inhibitor Selectivity”, Nat. Biotechnol. […] For most assays, kinases were fused to T7 phage strains (Fabian, supra) and for the other assays, kinases were produced in HEK-293 cells after which they were tagged with DNA for quantitative PCR detection. In general, full-length constructs were used for small, single domain kinases, and catalytic domain constructs for large multi-domain kinases. […] The liganded beads were blocked with excess biotin and washed with blocking buffer (SeaBlock (Pierce), 1% BSA, 0.05% Tween 20, 1 mM DTT) to remove unbound ligand and to reduce non-specific phage binding. […] All reactions were performed in polypropylene 384-well plates in a final volume of 0.04 ml. […] The kinase concentration in the eluates was measured by quantitative PCR. An illustration of the kinase interaction process is presented below. Kd/IC50 values were determined using a standard dose response curve using the hill equation. Curves were fitted using a non-linear least square fit with the Levenberg-Marquardt algorithm.
# SIRT-5, sequence (Q9NXA8 37-310): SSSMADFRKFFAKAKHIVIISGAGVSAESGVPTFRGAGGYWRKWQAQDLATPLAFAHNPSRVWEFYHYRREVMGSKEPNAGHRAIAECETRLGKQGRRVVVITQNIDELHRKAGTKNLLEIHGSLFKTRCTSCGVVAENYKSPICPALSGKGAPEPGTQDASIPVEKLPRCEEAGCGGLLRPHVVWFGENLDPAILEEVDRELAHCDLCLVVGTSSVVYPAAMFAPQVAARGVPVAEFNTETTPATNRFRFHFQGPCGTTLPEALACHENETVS
SMILES,IC50 [1],IC50 [2],IC50 [3],IC50 [4],IC50 [5],IC50 [6]
COc1ccc(-c2cc(=O)c3c(O)cc(O)cc3o2)cc1O [FBLGS-71],> 100 µM,3.68 µM,3.26 µM,> 100 µM,,
COc1cc(-c2cc(=O)c3c(O)c(C/C=C(\C)CCC=C(C)C)c(O)cc3o2)ccc1O [FBL-03A],,,,,123 µM,
COc1ccc(-c2cc(=O)c3c(O)cc(O)cc3o2)cc1 [FBLGS-73],> 100 µM,,,> 100 µM,,0.049 µM

# Reference: patent publication US20210121437A1, “[…] AGENTS […] FLAVONOID DERIVATIVES TARGETING KINASES, SIRTUINS AND ONCOGENIC AGENTS FOR THE TREATMENT OF MULTIPLE MYELOMA, LYMPHOMA, AND […]” (priority 2015, published 2021)
